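Protocol summary: plate cells (96-well), add compound at 5 concentrations, incubate 48 h, interpolate endpoints linearly. TGI: total growth inhibition.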
Tested on: TK-10 renal
Assay: NCI tumour cell line growth inhibition, 48 h

Question: Which TGI does the source give for `N#Cc1nc(-c2cccc(-c3nc(C#N)c(N)o3)n2)oc1N` here?
Answer: > 100 µM

Question: Which TGI does the source give for `O=C1C(c2c(O)[nH]c3ccc(S(=O)(=O)NCCO)cc23)=Nc2ccccc21` here?
Answer: 42.4 µM

Question: With `Cc1csc(-n2c(C)nc3cc(Cl)ccc3c2=O)n1` as the compound, how does the TGI read?
Answer: > 100 µM

Tested on: XF 498 CNS
Assay: NCI tumour cell line growth inhibition, 48 h

Question: With `CN(C)CN(C)c1nc(N(C)C)nc(N(C)CN(C)C)n1` as the compound, how does the TGI read?
Answer: > 100 µM

Question: With `CC(C)[Si](OCC1CC(C#N)OC(C)(C)O1)(C(C)C)C(C)C` (stereo not drawn) as the compound, how does the TGI read?
Answer: 37 µM

Tested on: NCI-H23 lung
Assay: NCI tumour cell line growth inhibition, 48 h

Question: How did the TGI turn out when `O=c1c2ccccc2nc(-c2ccccc2)n1NC(=S)Nc1cccc(Cl)c1` was run?
Answer: > 100 µM

Question: Which TGI does the source give for `CCOC(=O)CC(NC(=O)c1ccc(N=NN(C)C)cc1)C(=O)OCC` (stereo not drawn) here?
Answer: > 100 µM

Question: How did the TGI turn out when `CN(C)CN(C)c1nc(N(C)C)nc(N(C)CN(C)C)n1` was run?
Answer: 95.8 µM

Question: `CC(C)[Si](OCC1CC(C#N)OC(C)(C)O1)(C(C)C)C(C)C` (stereo not drawn) was tested. Which TGI did it give?
Answer: 65.8 µM

Question: `N#C/C(=C\c1ccc2[nH]ccc2c1)C(=O)c1ccc(O)c(O)c1` was tested. Which TGI did it give?
Answer: > 100 µM

Question: How did the TGI turn out when `CC(=O)Nc1ccc(-c2nnc(SCC(=O)Nc3ccc(Cl)cc3)o2)cc1` was run?
Answer: 18.2 µM

Question: How did the TGI turn out when `FC(F)(F)c1ccc2nc(Sc3ccc4ccccc4c3)cnc2c1` was run?
Answer: > 100 µM

Question: `O=P(O)(O)CN1CCNCCN(CP(=O)(O)O)CC1` was tested. Which TGI did it give?
Answer: > 100 µM

Question: How did the TGI turn out when `COc1ccc2c([nH]c3c(O)c(-c4c(C)cc5c([nH]c6c(CC=C(C)C)c(OC)ccc65)c4O)c(C)cc32)c1CC=C(C)C` was run?
Answer: > 100 µM

Question: With `COc1ccc(CNc2nc3ccccc3nc2C(=O)O)cc1` as the compound, how does the TGI read?
Answer: > 100 µM

Question: For `c1cc2c(cc1C1=NCCN1)c1cc(C3=NCCN3)ccc1n2CC1CCCCC1`, which TGI is on record?
Answer: 88.9 µM

Question: With `C=C1CC2[C@H](C)C(=O)CCC2(C)C2=C1C1CCC(C(C)CCC(=C)C(C)C(=O)O)C1(C)CC2=O` (stereo partly drawn) as the compound, how does the TGI read?
Answer: > 100 µM

Question: `COc1ccc(-n2cnc3c(NC(Cc4ccccc4)C(=O)O)ncnc32)cc1` (stereo not drawn) was tested. Which TGI did it give?
Answer: > 100 µM

Question: With `CC(=O)OCC1OC(n2c(-c3ccccc3)c(N=Nc3ccc(C)cc3)c(C)c(C#N)c2=S)C(OC(C)=O)C(OC(C)=O)C1OC(C)=O` (stereo not drawn) as the compound, how does the TGI read?
Answer: 42.1 µM

Question: Which TGI does the source give for `CC(C)NC(=O)OCc1c(COC(=O)NC(C)C)c(-c2cc[n+](COC(=O)C3CCCCC3)cc2)n2c1CCC2` here?
Answer: > 100 µM

Question: How did the TGI turn out when `O=S(=O)(O)c1cc(S(=O)(=O)O)c2c(N=Nc3ccc(N=Nc4ccccc4)cc3)c(O)ccc2c1` was run?
Answer: > 100 µM

Question: `CC(C)(C)C1=C(Br)C(OC(=O)C(F)(F)F)(C(C)(C)C)OP1(=O)c1ccccc1` (stereo not drawn) was tested. Which TGI did it give?
Answer: > 100 µM

Question: Which TGI does the source give for `CC(C)=NOC(=O)Nc1cccc2c1OCO2` here?
Answer: > 100 µM

Question: How did the TGI turn out when `Cc1ccc(/C=C2/N=C(N/N=C\c3ccccc3)NC2=O)cc1` was run?
Answer: > 100 µM

Question: How did the TGI turn out when `O=C(Nc1ccc2ccccc2c1)c1cc2cc(CCl)ccc2oc1=O` was run?
Answer: > 100 µM

Question: With `CC(C)(C)[Si](C)(C)OC[C@H](/C=C\CCCC(=O)O)NC1(c2ccccc2)c2ccccc2-c2ccccc21` as the compound, how does the TGI read?
Answer: 63.2 µM

Question: Which TGI does the source give for `CN(C)CCNC(=O)c1c(O)ccc2c1c1c(n2CCc2ccccc2)C(=O)c2ccccc2C1=O` here?
Answer: 28.8 µM

Question: With `N#Cc1nc(-c2cccc(-c3nc(C#N)c(N)o3)n2)oc1N` as the compound, how does the TGI read?
Answer: > 100 µM

Question: How did the TGI turn out when `O=C1C(c2c(O)[nH]c3ccc(S(=O)(=O)NCCO)cc23)=Nc2ccccc21` was run?
Answer: > 100 µM

Question: With `Cc1csc(-n2c(C)nc3cc(Cl)ccc3c2=O)n1` as the compound, how does the TGI read?
Answer: > 100 µM

Tested on: HOP-18 NSCLC
Assay: NCI tumour cell line growth inhibition, 48 h

Question: For `O=c1c2ccccc2nc(-c2ccccc2)n1NC(=S)Nc1cccc(Cl)c1`, which TGI is on record?
Answer: > 100 µM

Question: For `CN(C)CN(C)c1nc(N(C)C)nc(N(C)CN(C)C)n1`, which TGI is on record?
Answer: > 100 µM

Question: With `CC(C)[Si](OCC1CC(C#N)OC(C)(C)O1)(C(C)C)C(C)C` (stereo not drawn) as the compound, how does the TGI read?
Answer: > 100 µM

Question: With `N#C/C(=C\c1ccc2[nH]ccc2c1)C(=O)c1ccc(O)c(O)c1` as the compound, how does the TGI read?
Answer: > 100 µM

Question: With `CC(=O)Nc1ccc(-c2nnc(SCC(=O)Nc3ccc(Cl)cc3)o2)cc1` as the compound, how does the TGI read?
Answer: 30.2 µM

Question: For `COc1ccc2c([nH]c3c(O)c(-c4c(C)cc5c([nH]c6c(CC=C(C)C)c(OC)ccc65)c4O)c(C)cc32)c1CC=C(C)C`, which TGI is on record?
Answer: > 100 µM

Tested on: SNB-78 CNS
Assay: NCI tumour cell line growth inhibition, 48 h

Question: How did the TGI turn out when `CC(C)[Si](OCC1CC(C#N)OC(C)(C)O1)(C(C)C)C(C)C` (stereo not drawn) was run?
Answer: 52.1 µM

Question: For `N#C/C(=C\c1ccc2[nH]ccc2c1)C(=O)c1ccc(O)c(O)c1`, which TGI is on record?
Answer: > 100 µM

Question: How did the TGI turn out when `CC(=O)Nc1ccc(-c2nnc(SCC(=O)Nc3ccc(Cl)cc3)o2)cc1` was run?
Answer: > 100 µM

Question: `COc1ccc2c([nH]c3c(O)c(-c4c(C)cc5c([nH]c6c(CC=C(C)C)c(OC)ccc65)c4O)c(C)cc32)c1CC=C(C)C` was tested. Which TGI did it give?
Answer: > 100 µM

Tested on: KM20L2 colon
Assay: NCI tumour cell line growth inhibition, 48 h

Question: For `CN(C)CN(C)c1nc(N(C)C)nc(N(C)CN(C)C)n1`, which TGI is on record?
Answer: > 100 µM

Question: `CC(C)[Si](OCC1CC(C#N)OC(C)(C)O1)(C(C)C)C(C)C` (stereo not drawn) was tested. Which TGI did it give?
Answer: 65.8 µM

Question: Which TGI does the source give for `N#C/C(=C\c1ccc2[nH]ccc2c1)C(=O)c1ccc(O)c(O)c1` here?
Answer: > 100 µM

Question: Which TGI does the source give for `CC(=O)Nc1ccc(-c2nnc(SCC(=O)Nc3ccc(Cl)cc3)o2)cc1` here?
Answer: 33.3 µM

Question: `COc1ccc2c([nH]c3c(O)c(-c4c(C)cc5c([nH]c6c(CC=C(C)C)c(OC)ccc65)c4O)c(C)cc32)c1CC=C(C)C` was tested. Which TGI did it give?
Answer: > 100 µM

Tested on: M19-MEL melanoma
Assay: NCI tumour cell line growth inhibition, 48 h

Question: Which TGI does the source give for `O=c1c2ccccc2nc(-c2ccccc2)n1NC(=S)Nc1cccc(Cl)c1` here?
Answer: > 100 µM

Question: For `CCOC(=O)CC(NC(=O)c1ccc(N=NN(C)C)cc1)C(=O)OCC` (stereo not drawn), which TGI is on record?
Answer: > 100 µM

Question: With `CN(C)CN(C)c1nc(N(C)C)nc(N(C)CN(C)C)n1` as the compound, how does the TGI read?
Answer: > 100 µM

From PubChem BioAssay (NCI)
